These results are taken from patent publication US7507716B2, “Method for treating pain with prolactin antagonists” (Board of Regents, The University of Texas System, priority 2005, dated 2009).

Data set [1] concerns gene expression in trigeminal ganglia. Nature of the data set: Affymetrix microarray of trigeminal ganglia RNA after estradiol administration. Type of data set: in vivo, rat. As to conditions: OVX rats, estradiol 80 μg/kg/10 days versus vehicle. As for the experimental part:
At the end of the 10th day, animals were used for behavioral experiments or sacrificed by decapitation and the TG of each individual animal were harvested. Harvested tissue was used for RNA isolation, total protein isolation, or for preparing primary cultures of TG neurons.
The ground tissue was used to isolate total RNA by the guanidinium thiocyanate method as described previously (Chomczynski and Sacchi, 1987). The isolated RNA was then treated with a DNA-free reagent (DNAse I; Ambion, Austin, Tex.) and submitted to the Microarray Core Facility at the University of Texas Health Science Center at San Antonio. Additional RNA sample aliquots were used as template for the quantitative real time RT-PCR experiments.
Microarray analysis: Target preparation, hybridization, staining, scanning and analysis of image: RNA samples derived from TG of OVX rats treated with a single dose (80 μg/kg per day) of E2 or vehicle (n=5 for each group) were prepared for hybridization to Affymetrix (Santa Clara, Calif.) RG-U34A arrays according to the manufacturer's instructions. Total RNA was used as a template for double-stranded cDNA synthesis (Superscript Double-Stranded cDNA Synthesis kit, Invitrogen, Carlsbad, Calif.), which was used as a template for biotin-labeled cRNA synthesis (Enzo BioArray High Yield RNA Transcription Labeling Kit, Affymetrix). Purified (RNeasy kit, Qiagen, Valencia, Calif.) labeled-cRNA was hybridized to the rat genomic RG-U34A GeneChips for 16 h at 45° C. Following hybridization, the probe arrays were washed and stained using the GeneChip Fluidics station protocol EukGE-ES2. The intensity of bound dye was measured with an argon laser confocal scanner (GeneArray Scanner, Agilent, Palo Alto, Calif.). The probe arrays were scanned twice and the stored images were aligned and analyzed using the GeneClip software Micro array Analysis Suite (MAS) 5.0 (Affymetrix, Santa Clara, Calif.). Data were imported into the GeneSpring 5.1 software (Silicon Genetics, Redwood City, Calif.) and a list of genes of relative expression of ≧1.5 and ≧0.5 fold was obtained. The data were imported into the R software package and the probe level data were converted to expression measures using the Affy package (Bolstad et al., 2003) from Bioconductor. Expression values for each mRNA were obtained by the Robust Multi-array Analysis (RMA) method as described elsewhere (Boistad et al., 2003).

For data set [2], the system named is TG neurons. In words: Capsaicin-evoked iCGRP release from cultured TG neurons (RIA). It is filed as cell-based, rat. The settings on record: PRL 40 nM, capsaicin 50 nM. The procedure:
Release of iCGRP from cultured neurons was measured by radioimmunoassay. Data are presented as mean % of vehicle±SEM (n=4/group, *=P<0.05 and **=P<0.01 vs. iCGRP levels of each control group; two-tailed unpaired T test).
Rat trigeminal ganglia (TG) primary cultures: The TG from ovariectomized or intact female rats were quickly removed after decapitation and neuronal cultures were prepared as previously described (Fehrenbacher et al., 2005; Patwardhan et al., 2005). The trypsin treatment was omitted in TG cultures prepared for electrophysiological recording and Ca^2+ imaging. Cells were plated on 24 well Poly-D-Lysine coated plates (for iCGRP experiments), 6 well Poly-D-Lysine plates (for PRL release experiments), Poly-D-Lysine/laminin-coated coverslips (for single cell studies) or 10 cm plates (for phosphorylation experiments), respectively. The TG cultures were maintained at 37° C. and 5% CO2. […] The media were replaced at the end of 24 h and then 48 h later.
CGRP release assay: All culture experiments were performed on day 5 at 37° C. using modified Hanks (Gibco) buffer (10.9 mM HEPES, 4.2 mM sodium bicarbonate, 10 mM dextrose and 0.1% bovine serum albumin were added to 1× Hanks). After two initial washes, a 15 min baseline sample was collected. […]

Take `C[C@]12CC[C@@H]3c4ccc(O)cc4CC[C@H]3[C@@H]1CC[C@@H]2O` [estradiol, 17-β-estradiol]: in data set [1] (probe set AA958274_at), the “Trk A 3′ mRNA sequence expression, GS (change cut-off)” value is “≧1.5” and the “Trk A 3′ mRNA sequence expression, SAM” value was 1.5. For the same molecule, in data set [1] (probe set AB002393_at), the “Histidine ammonia lyase expression, GS (change cut-off)” value is reported as “≧1.5” and the “Histidine ammonia lyase expression, SAM” value worked out at 1.5. For the same molecule, in data set [1] (probe set AF050662UTR#1_at), the “Ania-10 early gene mRNA, 3′ UTR expression, GS (change cut-off)” value is “≧1.5” and the “Ania-10 early gene mRNA, 3′ UTR expression, SAM” value is given as 1.6. In data set [1] (probe set AF050664UTR#1_at), the “Ania-12 early gene mRNA, 3′ UTR expression, GS (change cut-off)” value is “≧1.5” and the “Ania-12 early gene mRNA, 3′ UTR expression, SAM” value amounted to 1.5. Also, in data set [1] (probe set AF087674_at), the “Insulin receptor substrate 2 (IRS-2) mRNA expression, GS (change cut-off)” value was “≧1.5” and the “Insulin receptor substrate 2 (IRS-2) mRNA expression, SAM” value is recorded as 1.4. Moreover, in data set [1] (probe set D00403_g_at), the “Interleukin 1 alpha expression, GS (change cut-off)” value was “≧1.5”. Also, the “Interleukin 1 alpha expression, SAM” value in data set [1] (probe set D00403_g_at, false positive by RT-PCR) was 1.3. In data set [1] (probe set D14097cds_s_at), the “Aldosterone synthase, exon 9 expression, GS (change cut-off)” value was “≧1.5” and the “Aldosterone synthase, exon 9 expression, SAM” value was found to be 1.5. Besides, in data set [1] (probe set D38381_s_at), the “Cytochrome P450, 3a18 expression, GS (change cut-off)” value is “≧1.5” and the “Cytochrome P450, 3a18 expression, SAM” value is listed as 1.3. Moreover, in data set [1] (probe set D49494cds_s_at), the “Prepro bone inducing protein expression, GS (change cut-off)” value is “≧1.5” and the “Prepro bone inducing protein expression, SAM” value was found to be 1.3. Also, in data set [1] (probe set E03166cds_s_at), the “Prolactin expression, GS (change cut-off)” value is reported as “≧1.5” and the “Prolactin expression, SAM” value worked out at 6.9. For the same molecule, in data set [1] (probe set M25801_g_at), the “Nuclear receptor subfamily 1, Group D, member 1 expression, GS (change cut-off)” value is reported as “≧1.5” and the “Nuclear receptor subfamily 1, Group D, member 1 expression, SAM” value was found to be 1.5. In data set [1] (probe set M31809_at), the “Protein phosphatase 3, catalytic subunit, beta isoform expression, GS (change cut-off)” value is “≦1.5” and the “Protein phosphatase 3, catalytic subunit, beta isoform expression, SAM” value amounted to 0.6. Also, in data set [1] (probe set Rc_AA894174_at), the “Electron transf. flavoprotein (Etfa), mRNA expression, GS (change cut-off)” value is on record as “≦1.5” and the “Electron transf. flavoprotein (Etfa), mRNA expression, SAM” value worked out at 0.7. In addition, in data set [1] (probe set S69383_at), the “Arachidonate 12-lipoxygenase expression, GS (change cut-off)” value was “≦1.5” and the “Arachidonate 12-lipoxygenase expression, SAM” value was 0.5. Also, in data set [1] (probe set V01244_at), the “Prolactin expression, GS (change cut-off)” value is given as “≧1.5” and the “Prolactin expression, SAM” value came out at 12.8. Besides, in data set [1] (probe set V01250cds_s_at), the “Prolactin expression, GS (change cut-off)” value is “≧1.5” and the “Prolactin expression, SAM” value was found to be 3. Further, in data set [1] (probe set X54419cds_at), the “Interleukin 5 (colony-stimulating factor, eosinophil) expression, GS (change cut-off)” value was “≧1.5” and the “Interleukin 5 (colony-stimulating factor, eosinophil) expression, SAM” value amounted to 1.3. In data set [1] (probe set X60328_at), the “Cytosolic epoxide hydrolase expression, GS (change cut-off)” value is reported as “≧1.5” and the “Cytosolic epoxide hydrolase expression, SAM” value was determined as 1.7. Moreover, in data set [1] (probe set rc_AA859966_i_at), the “Similar to M. musculus pre 45S pre rRNA gene expression, GS (change cut-off)” value is reported as “≧1.5” and the “Similar to M. musculus pre 45S pre rRNA gene expression, SAM” value came out at 4.1. In data set [1] (probe set rc_AA945571_sat), the “Cytochrome P450, subfamily IIC6 expression, GS (change cut-off)” value is “≧1.5” and the “Cytochrome P450, subfamily IIC6 expression, SAM” value worked out at 1.7.

B1: PRL: Ovine PRL [oPRL-21, BIO] provided by NHPP; prolactin polypeptide hormone (protein, UniProt P01240 31-229, looked up)
Prolactin: TPVCPNGPGNCQVSLRDLFDRAVMVSHYIHNLSSEMFNEFDKRYAQGKGFITMALNSCHTSSLPTPEDKEQAQQTHHEVLMSLILGLLRSWNDPLYHLVTEVRGMKGVPDAILSRAIEIEEENKRLLEGMEMIFGQVIPGAKETEPYPVWSGLPSLQTKDEDARHSAFYNLLHCLRRDSSKIDTYLKLLNCRIIYNNNC
For the molecule B1, the figures for the “PRL sensitization of capsaicin-evoked iCGRP release” value in data set [2] (OVX TG neurons cultured 5 days with 50 nM estradiol) and in data set [2] (OVX TG neurons cultured in the absence of E2) were “significantly restored” and “no effect was observed”, respectively.
